# Measured values taken from PMC12892976, “Alkylation-based optimization of antifungal FPPS inhibitors yields a potent, broad-spectrum lipophilic zoledronate derivative” (mBio, 2025).
# Experiments:
# [1] = test system: Cryptococcus deuterogattii biofilms; assay: biofilm XTT reduction assay (SIC80, SFICI)
# Procedure: (§2) Biofilms of Cryptococcus were seeded in DMEM, and all other species were seeded in RPMI-1640.
# [2] = test system: Aspergillus frankstonensis; assay: checkerboard drug interaction (FICI, MICc);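 also: simplified diagonal checkerboard screen pairing antifungals with FPPS inhibitors, FICI calculated using the Loewe additivity model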
# Procedure: (§3) Drug interactions between antifungals and FPPS inhibitors were investigated using a simplified checkerboard diagonal screening method ([45]). […] FICIs were determined according to the Loewe additivity model ([17]).
# [3] = test system: Trichophyton interdigitale; assay: checkerboard drug interaction (FICI, MICc);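 also: simplified diagonal checkerboard screen pairing antifungals with FPPS inhibitors, FICI values calculated under the Loewe additivity model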
# Procedure: as §3
# [4] = test system: Aspergillus niger; assay: checkerboard drug interaction (FICI, MICc); type: cell-based;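 also: simplified diagonal checkerboard screen pairing antifungals with FPPS inhibitors, FICI calculated under the Loewe additivity model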
# Procedure: as §3
# [5] = test system: Candida albicans biofilms; assay: biofilm XTT reduction assay (SIC80, SFICI)
# Procedure: as §2
# [6] = test system: Trichophyton interdigitale; assay: MIC broth microdilution (CLSI); type: cell-based; conditions: Trichophyton interdigitale R-234
# Procedure: (§4) Antifungal susceptibility was determined by broth microdilution according to the CLSI guidelines described in M27-Ed4 ([16]).
# [7] = test system: Trichophyton soudanense; assay: MIC broth microdilution (CLSI); conditions: Trichophyton soudanense R-167
# Procedure: as §4
# [8] = test system: Aspergillus terreus; assay: MIC broth microdilution (CLSI); type: cell-based; conditions: Aspergillus terreus 75-16-089-2500
# Procedure: as §4
# [9] = test system: Aspergillus lentulus; assay: MIC broth microdilution (CLSI); type: cell-based; conditions: Aspergillus lentulus DTO 341-G7
# Procedure: as §4
# [10] = test system: Trichophyton soudanense; assay: checkerboard drug interaction (FICI, MICc); type: cell-based;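 also: simplified diagonal checkerboard screen pairing antifungals with FPPS inhibitors, FICI computed under the Loewe additivity model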
# Procedure: as §3
# [11] = test system: Cryptococcus gattii; assay: checkerboard drug interaction (FICI, MICc); type: cell-based;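 also: simplified diagonal checkerboard screen pairing antifungals with FPPS inhibitors, FICI computed under the Loewe additivity model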
# Procedure: as §3
# [12] = test system: Candida parapsilosis; assay: checkerboard drug interaction (FICI, MICc); type: cell-based;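 also: simplified diagonal checkerboard screen pairing antifungals with FPPS inhibitors, with FICI computed under the Loewe additivity model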
# Procedure: as §3
# [13] = test system: Aspergillus fumigatus biofilms; assay: biofilm XTT reduction assay (SIC80, SFICI); type: cell-based
# Excerpt: (§1) […]. […] […].
# [14] = test system: Candida glabrata biofilms; assay: biofilm XTT reduction assay (SIC80, SFICI); type: cell-based
# Excerpt: as §1
# [15] = test system: Aspergillus flavus biofilms; assay: biofilm XTT reduction assay (SIC80, SFICI); type: cell-based
# Excerpt: as §1
# [16] = test system: Rhizopus oryzae; assay: MIC broth microdilution (CLSI); type: cell-based; conditions: Rhizopus oryzae 04-14-364-1703
# Procedure: as §4
# [17] = test system: Aspergillus niger; assay: MIC broth microdilution (CLSI); type: cell-based; conditions: Aspergillus niger 111
# Procedure: as §4
# [18] = test system: Epidermophyton floccosum; assay: checkerboard drug interaction (FICI, MICc);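 also: simplified diagonal checkerboard screen pairing antifungals with FPPS inhibitors, FICI calculated under the Loewe additivity model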
# Procedure: as §3
# [19] = test system: Fusarium solani; assay: MIC broth microdilution (CLSI); conditions: Fusarium solani 04-16-056-1862
# Procedure: as §4
# [20] = test system: Cryptococcus neoformans biofilms; assay: biofilm XTT reduction assay (SIC80, SFICI)
# Procedure: as §2
# [21] = test system: Trichophyton tonsurans; assay: checkerboard drug interaction (FICI, MICc); type: cell-based;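 also: simplified diagonal checkerboard screen combining antifungals with FPPS inhibitors, with FICI calculated under the Loewe additivity model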
# Procedure: as §3
# [22] = test system: Nannizzia gypsea; assay: MIC broth microdilution (CLSI); type: cell-based; conditions: Nannizzia gypsea R-131
# Procedure: as §4
# [23] = test system: Mucor circinelloides; assay: MIC broth microdilution (CLSI); type: cell-based; conditions: Mucor circinelloides 80-14-240-5007
# Procedure: as §4
# [24] = test system: Cryptococcus gattii; assay: MIC broth microdilution (CLSI); type: cell-based; conditions: Cryptococcus gattii PNG27
# Procedure: as §4
# [25] = test system: Scedosporium apiospermum; assay: MIC broth microdilution (CLSI); type: cell-based; conditions: Scedosporium apiospermum 04-16-022-2268
# Procedure: as §4
# [26] = test system: Trichophyton rubrum biofilms; assay: biofilm XTT reduction assay (SIC80, SFICI); type: cell-based; conditions: biofilm
# Procedure: as §2
# [27] = test system: Cryptococcus deneoformans; assay: checkerboard drug interaction (FICI, MICc); type: cell-based;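 also: simplified diagonal checkerboard screen pairing antifungals with FPPS inhibitors, FICI calculated under the Loewe additivity model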
# Procedure: as §3
# [28] = test system: Cryptococcus bacillisporus; assay: MIC broth microdilution (CLSI); type: cell-based; conditions: Cryptococcus bacillisporus NIH179
# Procedure: as §4
# [29] = test system: Aspergillus frankstonensis; assay: MIC broth microdilution (CLSI); type: cell-based; conditions: Aspergillus frankstonensis DTO 341-F3
# Procedure: as §4
# [30] = test system: Aspergillus parafelis; assay: MIC broth microdilution (CLSI); type: cell-based; conditions: Aspergillus parafelis DTO 341-F2
# Procedure: as §4
# [31] = test system: Saccharomyces cerevisiae biofilms; assay: biofilm XTT reduction assay (SIC80, SFICI); type: cell-based
# Procedure: as §2
compound,measurement,setting,value
"CC(=O)N1CCN(c2ccc(OCC3COC(Cn4ccnc4)(c4ccc(Cl)cc4Cl)O3)cc2)CC1 (stereo not drawn) [KET, ketoconazole]",SICc,"[1]; KET:10-ZOL combination, Cryptococcus deuterogattii",32 µg/mL
same,SIC80,"[1]; agent alone, Cryptococcus deuterogattii R265",256 µg/mL
same,antifungal MICc,[2]; in combination with 10-ZOL,1
same,antifungal MICc,[2]; in combination with ZOL,4
same,antifungal MICc,[3]; in combination with 10-ZOL,0.5
same,antifungal MICc,[3]; in combination with ZOL,2
same,antifungal MICc,[4]; in combination with 10-ZOL,2
same,antifungal MICc,[4]; in combination with ZOL,4
same,SICc,"[5]; KET:10-ZOL combination, Candida albicans",32 µg/mL
same,SIC80,"[5]; agent alone, Candida albicans SC5314",64 µg/mL
same,MIC / MEC,[6],8 mg/L
same,MIC / MEC,[7],4 mg/L
same,MIC / MEC,[8],2 mg/L
same,MIC / MEC,[9],16 mg/L
same,antifungal MICc,[10]; in combination with 10-ZOL,0.5
same,antifungal MICc,[10]; in combination with ZOL,1
same,antifungal MICc,[11]; in combination with 10-ZOL,0.125
same,antifungal MICc,[11]; in combination with ZOL,0.5
same,antifungal MICc,[12]; in combination with 10-ZOL,0.015
same,antifungal MICc,[12]; in combination with ZOL,0.03
same,SICc,"[13]; KET:10-ZOL combination, Aspergillus fumigatus",64 µg/mL
same,SIC80,"[13]; agent alone, Aspergillus fumigatus ATCC 204305",256 µg/mL
same,SICc,"[14]; KET:10-ZOL combination, Candida glabrata",64 µg/mL
same,SIC80,"[14]; agent alone, Candida glabrata CBS138",256 µg/mL
same,SICc,"[15]; KET:10-ZOL combination, Aspergillus flavus",64 µg/mL
same,SIC80,"[15]; agent alone, Aspergillus flavus ATCC 204304",128 µg/mL
same,MIC / MEC,[16],>16 mg/L
same,MIC / MEC,[17],8 mg/L
same,antifungal MICc,[18]; in combination with 10-ZOL,1
same,antifungal MICc,[18]; in combination with ZOL,0.5
same,MIC / MEC,[19],16 mg/L
same,SICc,"[20]; KET:10-ZOL combination, Cryptococcus neoformans",16 µg/mL
same,SIC80,"[20]; agent alone, Cryptococcus neoformans H99",32 µg/mL
same,antifungal MICc,[21]; in combination with 10-ZOL,0.25
same,antifungal MICc,[21]; in combination with ZOL,0.5
same,MIC / MEC,[22],16 mg/L
same,MIC / MEC,[23],16 mg/L
same,MIC / MEC,[24],0.5 mg/L
same,MIC / MEC,[25],8 mg/L
same,SICc,"[26]; KET:10-ZOL combination, Trichophyton rubrum",64 µg/mL
same,SIC80,"[26]; agent alone, Trichophyton rubrum 213",256 µg/mL
same,antifungal MICc,[27]; in combination with 10-ZOL,0.063
same,antifungal MICc,[27]; in combination with ZOL,0.03125
same,MIC / MEC,[28],0.25 mg/L
same,MIC / MEC,[29],8 mg/L
same,MIC / MEC,[30],>16 mg/L
same,SICc,"[31]; KET:10-ZOL combination, Saccharomyces cerevisiae",16 µg/mL
same,SIC80,"[31]; agent alone, Saccharomyces cerevisiae S288c",32 µg/mL
